# Molecular target: AgtA (His6AgtA) (Dictyostelium discoideum, UniProt Q54RP0)
# Experiment: radiometric galactosyl transfer from UDP-[3H]Gal
# Assay type: biochemical
# Details: 10 µM UDP-[3H]Gal, 60 min; acceptor substrate
# Sequence of AgtA (His6AgtA) (Q54RP0 whole entry): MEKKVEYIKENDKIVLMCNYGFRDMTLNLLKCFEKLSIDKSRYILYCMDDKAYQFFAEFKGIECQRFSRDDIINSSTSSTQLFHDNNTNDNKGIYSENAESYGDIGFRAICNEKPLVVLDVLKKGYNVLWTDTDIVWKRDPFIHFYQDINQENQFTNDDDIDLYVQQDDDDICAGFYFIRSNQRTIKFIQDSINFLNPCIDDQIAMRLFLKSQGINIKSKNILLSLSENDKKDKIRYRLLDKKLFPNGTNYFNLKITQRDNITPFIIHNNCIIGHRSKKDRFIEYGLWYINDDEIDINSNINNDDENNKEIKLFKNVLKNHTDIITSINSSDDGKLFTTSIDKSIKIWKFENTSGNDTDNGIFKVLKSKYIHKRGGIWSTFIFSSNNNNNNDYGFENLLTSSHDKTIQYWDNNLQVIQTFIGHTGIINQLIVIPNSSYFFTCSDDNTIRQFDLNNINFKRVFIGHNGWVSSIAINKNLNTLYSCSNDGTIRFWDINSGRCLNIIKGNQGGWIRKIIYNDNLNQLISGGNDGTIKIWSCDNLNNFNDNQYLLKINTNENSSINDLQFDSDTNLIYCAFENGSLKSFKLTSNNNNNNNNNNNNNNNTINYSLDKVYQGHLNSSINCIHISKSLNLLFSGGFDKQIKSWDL
compound,measurement,value
C[C@@H]1O[C@@H](Oc2ccc([N+](=O)[O-])cc2)[C@@H](O)[C@H](O)[C@@H]1O [F-pNP],radiometric galactosyl transfer from UDP-[3H]Gal,Comparison of AgtA activity towards F-pNP and FGGn-pNP
